Measurements from patent publication US8808743B2, “Benzonatate compositions and methods of use” (priority 2010, dated 2014).

Test: Simulated buccal dissolution testing (stirred flow-thru cell, simulated saliva)
Format: physicochemical
Settings: 8 mg dose
From the text: Most USP dissolution tests use large volumes of media—defined as ‘sink conditions’; the aim is to get complete dissolution of the active ingredient. […] They are: • Small volume • Short residence time • Solids transfer • Composition • Incomplete dissolution
For buccal dissolution the volume of saliva is very small compared to that of the stomach and the residence time in the mouth is also very short, the bulk of the dosage form being swallowed within a minute. The dissolution test used here employed procedures and a buccal dissolution apparatus devised by DOW Chemical described in U.S. Pat. No. 7,470,545 B2 herein incorporated by reference to the extent not incompatible herewith.
In order for this test to give meaningful results it is necessary to use a dissolution media that simulates saliva. There is no USP recommended simulated saliva, so the composition used in these studies was based on published ranges. The composition used is shown below:
The technique uses a stirred flow-thru cell with a very short residence time. The buccal dissolution test was set up using simulated saliva, with a liquid volume in the cell of 9 ml, and a flow rate of 5.3 ml/min (2.7 ml/min thru the dip tube to waste, and 2.6 ml/min thru the filter and the in-line UV cell). UV cell path length was 1 mm. The tests were run at room temperature
Buccal dissolution studies were carried out with neat Formosa benzonatate (abbreviated below as “Benz”) and benzonatate resinates prepared from this benzonatate. Preparation of the resinates was at room temperature for 40 hours by the procedure described in Example 2.
Dissolution data were obtained at several benzonatate dosages for both the neat benzonatate and the resinates, and the data were normalized to a dosage of 8 mg. The normalized benzonatate dissolution data are given in Table VII and are plotted as a function of time in FIG. 6.

For `CCCCNc1ccc(C(=O)OCCOCCOCCOCCOCCOCCOCCOCCOCCOC)cc1` [BENZ, benzonatate], the “Benzonatate Conc. In Effluent” value (0 sec) was 0 mg/L, the “Benzonatate Conc. In Effluent” value (5 sec) was 0 mg/L and the “Benzonatate Conc. In Effluent” value (10 sec) was 0 mg/L. For the same compound, the “Benzonatate Conc. In Effluent” value (15 sec) was 37.3 mg/L, the “Cumulative Benzonatate Released” value (15 sec) was 0.008 mg and the “Benzonatate Conc. In Effluent” value (20 sec) was 192.8 mg/L. The “Cumulative Benzonatate Released” value (20 sec) was 0.059 mg, the “Benzonatate Conc. In Effluent” value (25 sec) was 353.0 mg/L and the “Cumulative Benzonatate Released” value (25 sec) was 0.180 mg. The “Benzonatate Conc. In Effluent” value (30 sec) was 473.4 mg/L, the “Cumulative Benzonatate Released” value (30 sec) was 0.362 mg and the “Benzonatate Conc. In Effluent” value (35 sec) was 544.2 mg/L. For the same compound, the “Cumulative Benzonatate Released” value (35 sec) was 0.587 mg, the “Benzonatate Conc. In Effluent” value (40 sec) was 574.7 mg/L and the “Cumulative Benzonatate Released” value (40 sec) was 0.834 mg. For the same compound, the “Benzonatate Conc. In Effluent” value (45 sec) was 585.5 mg/L, the “Cumulative Benzonatate Released” value (45 sec) was 1.090 mg and the “Benzonatate Conc. In Effluent” value (50 sec) was 573.6 mg/L. The “Cumulative Benzonatate Released” value (50 sec) was 1.346 mg, the “Benzonatate Conc. In Effluent” value (55 sec) was 559.0 mg/L and the “Cumulative Benzonatate Released” value (55 sec) was 1.596 mg. The “Benzonatate Conc. In Effluent” value (60 sec) was 541.7 mg/L, the “Cumulative Benzonatate Released” value (60 sec) was 1.839 mg and the “Benzonatate Conc. In Effluent” value (65 sec) was 519.6 mg/L. The “Cumulative Benzonatate Released” value (65 sec) was 2.074 mg, the “Benzonatate Conc. In Effluent” value (70 sec) was 498.0 mg/L and the “Cumulative Benzonatate Released” value (70 sec) was 2.298 mg. The “Benzonatate Conc. In Effluent” value (75 sec) was 480.4 mg/L, the “Cumulative Benzonatate Released” value (75 sec) was 2.514 mg and the “Benzonatate Conc. In Effluent” value (80 sec) was 460.2 mg/L. The “Cumulative Benzonatate Released” value (80 sec) was 2.722 mg, the “Benzonatate Conc. In Effluent” value (85 sec) was 439.9 mg/L and the “Cumulative Benzonatate Released” value (85 sec) was 2.921 mg. The “Benzonatate Conc. In Effluent” value (90 sec) was 421.8 mg/L, the “Cumulative Benzonatate Released” value (90 sec) was 3.111 mg and the “Benzonatate Conc. In Effluent” value (95 sec) was 403.2 mg/L. For the same compound, the “Cumulative Benzonatate Released” value (95 sec) was 3.293 mg, the “Benzonatate Conc. In Effluent” value (100 sec) was 387.3 mg/L and the “Cumulative Benzonatate Released” value (100 sec) was 3.468 mg. For the same compound, the “Benzonatate Conc. In Effluent” value (105 sec) was 369.4 mg/L, the “Cumulative Benzonatate Released” value (105 sec) was 3.635 mg and the “Benzonatate Conc. In Effluent” value (110 sec) was 353.5 mg/L. For the same compound, the “Cumulative Benzonatate Released” value (110 sec) was 3.795 mg, the “Benzonatate Conc. In Effluent” value (115 sec) was 337.8 mg/L and the “Cumulative Benzonatate Released” value (115 sec) was 3.947 mg. For the same compound, the “Benzonatate Conc. In Effluent” value (120 sec) was 323.0 mg/L, the “Cumulative Benzonatate Released” value (120 sec) was 4.093 mg and the “Benzonatate Conc. In Effluent” value (125 sec) was 308.9 mg/L. For the same compound, the “Cumulative Benzonatate Released” value (125 sec) was 4.233 mg, the “Benzonatate Conc. In Effluent” value (130 sec) was 294.9 mg/L and the “Cumulative Benzonatate Released” value (130 sec) was 4.366 mg. The “Benzonatate Conc. In Effluent” value (135 sec) was 282.2 mg/L, the “Cumulative Benzonatate Released” value (135 sec) was 4.494 mg and the “Benzonatate Conc. In Effluent” value (140 sec) was 269.8 mg/L. For the same compound, the “Cumulative Benzonatate Released” value (140 sec) was 4.615 mg, the “Benzonatate Conc. In Effluent” value (145 sec) was 257.6 mg/L and the “Cumulative Benzonatate Released” value (145 sec) was 4.732 mg. For the same compound, the “Benzonatate Conc. In Effluent” value (150 sec) was 246.0 mg/L, the “Cumulative Benzonatate Released” value (150 sec) was 4.843 mg and the “Benzonatate Conc. In Effluent” value (155 sec) was 235.2 mg/L. The “Cumulative Benzonatate Released” value (155 sec) was 4.949 mg, the “Benzonatate Conc. In Effluent” value (160 sec) was 224.7 mg/L and the “Cumulative Benzonatate Released” value (160 sec) was 5.051 mg. The “Benzonatate Conc. In Effluent” value (165 sec) was 214.7 mg/L, the “Cumulative Benzonatate Released” value (165 sec) was 5.148 mg and the “Benzonatate Conc. In Effluent” value (170 sec) was 205.2 mg/L. For the same compound, the “Cumulative Benzonatate Released” value (170 sec) was 5.241 mg, the “Benzonatate Conc. In Effluent” value (175 sec) was 195.8 mg/L and the “Cumulative Benzonatate Released” value (175 sec) was 5.329 mg. For the same compound, the “Benzonatate Conc. In Effluent” value (180 sec) was 187.1 mg/L, the “Cumulative Benzonatate Released” value (180 sec) was 5.414 mg and the “Benzonatate Conc. In Effluent” value (185 sec) was 178.8 mg/L. For the same compound, the “Cumulative Benzonatate Released” value (185 sec) was 5.495 mg, the “Benzonatate Conc. In Effluent” value (190 sec) was 170.9 mg/L and the “Cumulative Benzonatate Released” value (190 sec) was 5.572 mg. The “Benzonatate Conc. In Effluent” value (195 sec) was 163.1 mg/L, the “Cumulative Benzonatate Released” value (195 sec) was 5.646 mg and the “Benzonatate Conc. In Effluent” value (200 sec) was 155.8 mg/L. The “Cumulative Benzonatate Released” value (200 sec) was 5.716 mg, the “Benzonatate Conc. In Effluent” value (205 sec) was 148.8 mg/L and the “Cumulative Benzonatate Released” value (205 sec) was 5.783 mg. The “Benzonatate Conc. In Effluent” value (210 sec) was 142.0 mg/L, the “Cumulative Benzonatate Released” value (210 sec) was 5.848 mg and the “Benzonatate Conc. In Effluent” value (215 sec) was 135.6 mg/L. The “Cumulative Benzonatate Released” value (215 sec) was 5.909 mg, the “Benzonatate Conc. In Effluent” value (220 sec) was 129.6 mg/L and the “Cumulative Benzonatate Released” value (220 sec) was 5.967 mg. For the same compound, the “Benzonatate Conc. In Effluent” value (225 sec) was 123.7 mg/L, the “Cumulative Benzonatate Released” value (225 sec) was 6.023 mg and the “Benzonatate Conc. In Effluent” value (230 sec) was 118.3 mg/L. The “Cumulative Benzonatate Released” value (230 sec) was 6.077 mg, the “Benzonatate Conc. In Effluent” value (235 sec) was 112.9 mg/L and the “Cumulative Benzonatate Released” value (235 sec) was 6.128 mg. For the same compound, the “Benzonatate Conc. In Effluent” value (240 sec) was 107.8 mg/L, the “Cumulative Benzonatate Released” value (240 sec) was 6.177 mg and the “Benzonatate Conc. In Effluent” value (245 sec) was 102.9 mg/L. The “Cumulative Benzonatate Released” value (245 sec) was 6.223 mg, the “Benzonatate Conc. In Effluent” value (250 sec) was 98.3 mg/L and the “Cumulative Benzonatate Released” value (250 sec) was 6.268 mg. The “Benzonatate Conc. In Effluent” value (255 sec) was 93.7 mg/L, the “Cumulative Benzonatate Released” value (255 sec) was 6.310 mg and the “Benzonatate Conc. In Effluent” value (260 sec) was 89.7 mg/L. For the same compound, the “Cumulative Benzonatate Released” value (260 sec) was 6.350 mg, the “Benzonatate Conc. In Effluent” value (265 sec) was 85.6 mg/L and the “Cumulative Benzonatate Released” value (265 sec) was 6.389 mg. The “Benzonatate Conc. In Effluent” value (270 sec) was 81.8 mg/L, the “Cumulative Benzonatate Released” value (270 sec) was 6.426 mg and the “Benzonatate Conc. In Effluent” value (275 sec) was 78.0 mg/L. The “Cumulative Benzonatate Released” value (275 sec) was 6.461 mg, the “Benzonatate Conc. In Effluent” value (280 sec) was 74.5 mg/L and the “Cumulative Benzonatate Released” value (280 sec) was 6.495 mg. The “Benzonatate Conc. In Effluent” value (285 sec) was 71.3 mg/L, the “Cumulative Benzonatate Released” value (285 sec) was 6.527 mg and the “Benzonatate Conc. In Effluent” value (290 sec) was 68.1 mg/L. The “Cumulative Benzonatate Released” value (290 sec) was 6.558 mg, the “Benzonatate Conc. In Effluent” value (295 sec) was 64.8 mg/L and the “Cumulative Benzonatate Released” value (295 sec) was 6.587 mg. The “Benzonatate Conc. In Effluent” value (300 sec) was 61.6 mg/L and the “Cumulative Benzonatate Released” value (300 sec) was 6.615 mg.
